Test systems include CAKI-1; COLO 205; EKVX; HCC 2998; HOP-92; Hs-578T; IGROV-1; K562; MCF7; MDA-MB-231; MOLT-4; NCI-H23; NCI-H522; OVCAR-4; OVCAR-5; SF-268; SK-MEL-28; SK-MEL-2; SK-OV-3; SW-620.
Holding throughout (experiment): NCI anticancer screen, dose series, 48 h

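Where inhibition never reached the appropriate level, the endpoint shown equals the highest concentration tested. Otherwise, values were interpolated linearly from a five-concentration, 48-hour dose response in 96-well plates. Abbreviation: GI50, concentration required for 50% inhibition of growth.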 Activity calls are given as the source filed them. Cut-off read from the data, not from the text of the source: active = GI50 up to about 1.1 µM and inactive = higher. A value given as a limit tells only on which side of the number the result lay.

In the case of `COC(=O)c1c(C)ccc2c(O)c3c(cc12)C(=O)c1c2c(cc(O)c1C3=O)C1(C)OC(C)(O2)C(O)C(N(C)C)C1O` (stereo not given), the GI50 with CAKI-1 is 1.91 µM (inactive); with COLO 205 it was 1.82 µM (inactive); in the experiment with EKVX, 2.37 µM (inactive); with HCC 2998 it was 0.532 µM (active); in the experiment with HOP-92, 1.82 µM (inactive); in the experiment with Hs-578T it was 1.86 µM (inactive). The GI50 in the experiment on IGROV-1 was 1.06 µM (active); in the experiment on K562 it was 0.942 µM (active); with MCF7, 1.28 µM (inactive); with MDA-MB-231 it was 1.38 µM (inactive); in the experiment on MOLT-4, 0.543 µM (active); in the experiment on NCI-H23 it was 1.56 µM (inactive). In addition, the GI50 is 1.22 µM (inactive) in the experiment with NCI-H522; 2.12 µM (inactive) in the experiment on OVCAR-4; 2.96 µM (inactive) with OVCAR-5; 1.05 µM (active) with SF-268; 4.37 µM (inactive) in the experiment on SK-MEL-28; 2.24 µM (inactive) in the experiment with SK-MEL-2. The values for the GI50 with SK-OV-3 and with SW-620 were 3.33 µM (inactive) and 0.869 µM (active), respectively.

As for `O=C(O)C(O)C(O)C(O)C(O)CO.[Ba+2]` (stereo not given), the GI50 in the experiment on CAKI-1, in the experiment on COLO 205, with EKVX, in the experiment with HCC 2998, with HOP-92 and in the experiment with Hs-578T was > 100 µM (inactive) throughout. Moreover, the GI50 with IGROV-1, with K562, with MCF7, with MDA-MB-231, in the experiment on MOLT-4 and in the experiment on NCI-H23 was > 100 µM (inactive) each time. Also, the GI50 in the experiment on NCI-H522, with OVCAR-4, in the experiment on OVCAR-5, with SF-268, with SK-MEL-28 and with SK-MEL-2 was > 100 µM (inactive) each time. Further, the GI50 with SK-OV-3 and in the experiment with SW-620 was > 100 µM (inactive) in each case.

Take `CN(NC(=O)/C(=C/c1ccc(O)cc1)NC(=O)c1ccccc1)c1ccnc2cc(Cl)ccc12`: the GI50 in the experiment with CAKI-1 was 19.3 µM (inactive); in the experiment with COLO 205 it was 17.5 µM (inactive); in the experiment with EKVX, 18.2 µM (inactive); with HCC 2998, 18.1 µM (inactive); with HOP-92 it was 17.3 µM (inactive); with Hs-578T, 19.2 µM (inactive). In addition, the GI50 in the experiment with IGROV-1 was 16.3 µM (inactive); with K562, 6.35 µM (inactive); with MCF7, 13.6 µM (inactive); with MDA-MB-231 it was 20.7 µM (inactive); in the experiment with MOLT-4 it was 16.7 µM (inactive); in the experiment on NCI-H23 it was > 10 µM (inactive). Moreover, the GI50 in the experiment with NCI-H522 is 21 µM (inactive); in the experiment with OVCAR-4, 17 µM (inactive); in the experiment with OVCAR-5, 22.5 µM (inactive); with SF-268 it was 15.1 µM (inactive); in the experiment with SK-MEL-28, 19.9 µM (inactive); in the experiment on SK-MEL-2, 22.3 µM (inactive). Also, the GI50 is 19 µM (inactive) in the experiment on SK-OV-3 and 20.8 µM (inactive) in the experiment with SW-620.

Turning to `Cc1sc(Nc2ccc(Nc3nc(-c4ccccc4)c(C)s3)cc2)nc1-c1ccccc1`, the GI50 is 88.1 µM (inactive) in the experiment on CAKI-1; 16.2 µM (inactive) with COLO 205; > 100 µM (inactive) in the experiment with EKVX; 16.9 µM (inactive) in the experiment on HCC 2998; > 100 µM (inactive) in the experiment with HOP-92; > 100 µM (inactive) with Hs-578T. In addition, the GI50 in the experiment on IGROV-1 was > 100 µM (inactive); in the experiment on K562 it was 18.6 µM (inactive); in the experiment with MCF7, 21.8 µM (inactive); in the experiment on MDA-MB-231, 42 µM (inactive); in the experiment with MOLT-4 it was 17.1 µM (inactive); with NCI-H23, 28.7 µM (inactive). Besides, the GI50 in the experiment with NCI-H522 was 35.4 µM (inactive); in the experiment on OVCAR-4 it was > 100 µM (inactive); in the experiment with OVCAR-5, > 100 µM (inactive); in the experiment on SF-268, > 100 µM (inactive); in the experiment with SK-MEL-28, > 100 µM (inactive); in the experiment with SK-MEL-2, 21.7 µM (inactive). The GI50 with SK-OV-3 was > 100 µM (inactive); in the experiment on SW-620, 40.2 µM (inactive).

For the compound `O=C(NCC1Nc2ccncc2S(=O)(=O)N1)c1ccc(Br)cc1` (stereo not given), the GI50 is > 100 µM (inactive) with CAKI-1; > 100 µM (inactive) with COLO 205; > 100 µM (inactive) in the experiment on EKVX; 51.9 µM (inactive) with HCC 2998; 34.4 µM (inactive) with HOP-92; 32.2 µM (inactive) in the experiment on Hs-578T. The GI50 is 80.5 µM (inactive) in the experiment with IGROV-1; 33.2 µM (inactive) in the experiment with K562; 37 µM (inactive) in the experiment with MCF7; 20.1 µM (inactive) in the experiment on MDA-MB-231; 46.2 µM (inactive) with MOLT-4; 66.1 µM (inactive) in the experiment on NCI-H23. The GI50 in the experiment with NCI-H522 was 28.2 µM (inactive); with OVCAR-4, 64.6 µM (inactive); in the experiment on OVCAR-5, > 100 µM (inactive); in the experiment with SF-268, 27.4 µM (inactive); in the experiment with SK-MEL-28, 92.5 µM (inactive); in the experiment with SK-MEL-2, 14.9 µM (inactive). In addition, the GI50 was > 100 µM (inactive) with SK-OV-3 and 41.2 µM (inactive) in the experiment with SW-620.

With `C=C=C(CC1CCCCC1=O)S(=O)(=O)c1ccccc1` (stereo not given), the GI50 with CAKI-1 was > 10 µM (inactive); in the experiment with COLO 205, > 10 µM (inactive); in the experiment with EKVX it was > 10 µM (inactive); in the experiment with HCC 2998, > 8.71 µM (inactive); in the experiment with HOP-92 it was > 10 µM (inactive); in the experiment with Hs-578T, > 10 µM (inactive). The GI50 with IGROV-1 is > 10 µM (inactive); with K562, 1.69 µM (inactive); with MCF7 it was 3.23 µM (inactive); in the experiment with MDA-MB-231, > 10 µM (inactive); with MOLT-4, 0.0489 µM (active); in the experiment on NCI-H23, 5.13 µM (inactive). The GI50 was 0.245 µM (active) with NCI-H522; > 10 µM (inactive) in the experiment on OVCAR-4; > 10 µM (inactive) in the experiment with OVCAR-5; > 10 µM (inactive) with SF-268; > 10 µM (inactive) in the experiment on SK-MEL-28; > 10 µM (inactive) with SK-MEL-2. For the same compound, the GI50 in the experiment on SK-OV-3 was > 10 µM (inactive); with SW-620 it was 2.86 µM (inactive).

Regarding `CCCOc1cc2c(cc1O)CC[C@@H]1[C@@H]2CC[C@]2(C)[C@@H](O)CC[C@@H]12`, the GI50 is 2.81 µM (inactive) in the experiment with CAKI-1; 12 µM (inactive) in the experiment on COLO 205; 6.27 µM (inactive) with EKVX; 4.56 µM (inactive) in the experiment with HCC 2998; 10.3 µM (inactive) with HOP-92; 1.55 µM (inactive) in the experiment with Hs-578T. Besides, the GI50 is 5.48 µM (inactive) in the experiment on IGROV-1; 0.209 µM (active) in the experiment with K562; 2.18 µM (inactive) in the experiment on MCF7; 5.56 µM (inactive) in the experiment on MDA-MB-231; 0.946 µM (active) in the experiment with MOLT-4; 3.37 µM (inactive) in the experiment with NCI-H23. The GI50 in the experiment with NCI-H522 was 0.383 µM (active); in the experiment on OVCAR-4, 15.1 µM (inactive); with OVCAR-5, 27.4 µM (inactive); in the experiment on SF-268, 6.3 µM (inactive); in the experiment on SK-MEL-28, 8.26 µM (inactive); in the experiment with SK-MEL-2, 2.17 µM (inactive). In addition, the GI50 in the experiment with SK-OV-3 was 3.04 µM (inactive); in the experiment on SW-620, 1 µM (active).

For the compound `COC(=O)/C=C(\C(=O)OC)c1cc(C)c2cc(C(C)C)ccc(C)c1-2`, the GI50 was 47.9 µM (inactive) in the experiment on CAKI-1; 30.3 µM (inactive) in the experiment on COLO 205; 71 µM (inactive) in the experiment on EKVX; 28 µM (inactive) in the experiment with HCC 2998; 24.5 µM (inactive) in the experiment with HOP-92; 42.7 µM (inactive) with Hs-578T. Moreover, the GI50 with IGROV-1 was 85.9 µM (inactive); with K562, > 100 µM (inactive); with MCF7, 24.9 µM (inactive); in the experiment with MDA-MB-231, 24.7 µM (inactive); in the experiment with MOLT-4 it was > 100 µM (inactive); in the experiment on NCI-H23 it was 31.8 µM (inactive). Moreover, the GI50 with NCI-H522 is 13.1 µM (inactive); in the experiment with OVCAR-4 it was 88.3 µM (inactive); with OVCAR-5, > 100 µM (inactive); in the experiment with SF-268 it was > 100 µM (inactive); in the experiment on SK-MEL-28 it was > 100 µM (inactive); with SK-MEL-2, 34.8 µM (inactive). Besides, the GI50 was 85.9 µM (inactive) with SK-OV-3 and 34 µM (inactive) in the experiment on SW-620.

On to `Cc1ccc(-c2n[nH]c(=O)n2/N=C\c2ccccc2O)cc1`, for which the GI50 in the experiment with CAKI-1 is > 100 µM (inactive); with COLO 205, > 100 µM (inactive); with EKVX, > 100 µM (inactive); with HCC 2998, > 100 µM (inactive); in the experiment with HOP-92, > 100 µM (inactive); in the experiment with Hs-578T, 51.4 µM (inactive). Moreover, the GI50 is > 100 µM (inactive) with IGROV-1; > 100 µM (inactive) with K562; 55.6 µM (inactive) in the experiment on MCF7; 68.5 µM (inactive) with MDA-MB-231; > 100 µM (inactive) in the experiment with MOLT-4; > 100 µM (inactive) with NCI-H23. In addition, the GI50 in the experiment with NCI-H522, with OVCAR-4, in the experiment on OVCAR-5, with SF-268, in the experiment with SK-MEL-28 and with SK-MEL-2 was > 100 µM (inactive) each time. The GI50 in the experiment on SK-OV-3 was 81.3 µM (inactive); in the experiment on SW-620, > 100 µM (inactive).

With `O=C(O)C1CCCCC1c1c2ccc(=O)cc-2oc2cc(O)ccc12` (stereo not given), the GI50 is 31.8 µM (inactive) in the experiment with CAKI-1; 34.1 µM (inactive) in the experiment with COLO 205; 33.5 µM (inactive) in the experiment on EKVX; 31 µM (inactive) in the experiment with HCC 2998; 12 µM (inactive) with HOP-92; 34.8 µM (inactive) with Hs-578T. The GI50 is 12.9 µM (inactive) in the experiment on IGROV-1; 14.1 µM (inactive) with K562; 27.6 µM (inactive) with MCF7; 30.8 µM (inactive) in the experiment on MDA-MB-231; 23.8 µM (inactive) in the experiment with MOLT-4; 29.8 µM (inactive) in the experiment on NCI-H23. For the same compound, the GI50 in the experiment with NCI-H522 was 17.7 µM (inactive); in the experiment on OVCAR-4 it was 23.1 µM (inactive); with OVCAR-5 it was 29.4 µM (inactive); in the experiment with SF-268 it was 33.7 µM (inactive); with SK-MEL-28 it was 35.6 µM (inactive); in the experiment with SK-MEL-2 it was 29.4 µM (inactive). Besides, the figures for the GI50 in the experiment with SK-OV-3 and with SW-620 were 32.1 µM (inactive) and 44.9 µM (inactive), respectively.

The values are drawn from ChEMBL document CHEMBL1201862, “PubChem BioAssay data set” (2004).
